Experiments:
[1] = Compressibility Index (Flowability) by standard methods; format: physicochemical; conditions: crystalline powder
Experimental: (§1) Compressability Index, or in other words the Flowability of the two materials were determined by standard methods practiced in the art. The Particle Size Distribution was determined using a Mastersizer 2000, Version 2 instrument with cyclohexane as the dispersant.

[2] = Particle Size Distribution, Mastersizer 2000 with cyclohexane as the dispersant; format: physicochemical
Experimental: as §1

[3] = final printed label of ACEON Tablets, cited from earlier work

Row | Compressibility Index [1] | Particle Size Distribution (10%) [2] | Particle Size Distribution (50%) [2] | Particle Size Distribution (90%) [2] | SMILES | solubility in alcohol ([3]; alcohol) | solubility in chloroform ([3]; chloroform) | solubility in water ([3]; water) [% w/w]
1 | 23.8 | 9.06μ (10%); | 36.37μ (50%); | 119.78μ (90%) | CCC[C@H](N[C@@H](C)C(=O)N1[C@H](C(=O)O)C[C@@H]2CCCC[C@@H]21)C(=O)OCC [Perindopril erbumine crystallized as per the method of the p] | – | – | –
2 | 20.00 | 16.39μ (10%); | 70.18μ (50%); | 188.11μ (90%) | CCC[C@H](N[C@@H](C)C(=O)N1[C@H](C(=O)O)C[C@@H]2CCCC[C@@H]21)C(=O)OCC [Perindopril erbumine crystallized as per the method of U.S. ] | – | – | –
3 | – | – | – | – | CCC[C@H](N[C@@H](C)C(=O)N1[C@H](C(=O)O)C[C@@H]2CCCC[C@@H]21)C(=O)OCC [perindopril erbumine] | freely soluble | freely soluble | 60
